What was measured:
[1] = test system: NF-κB; experiment: Inhibitory effect on NF-κB activation by TPA (luciferase reporter, pGL3-NF1, in COS-7 cells); type: cell-based; details: TPA 50 ng/ml, 10 to 100 μg/ml, 24 hours
Protocol: COS-7 cells maintained in a DMEM medium (containing 5% bovine fetal serum) were transfected with a plasmid (pGL3-NF1) containing 5xNF-κB binding sequence (5′-[…]-3′) (SEQ ID NO: 1) located upstream of the luciferase gene. The cells were added with TPA (50 ng/ml) and RKB-3564S and RKB-3564SAC in a series of dilution, and cultured for 24 hours, and then the activity of produced luciferase was measured to calculate the inhibitory effect on NF-κB activation by TPA.

[2] = test system: MCF-7 cells derived from human mammary cancer; experiment: Inhibitory effect on proliferation of tumor cells (MTT survival rate) under 1% or 20% oxygen; type: cell-based; details: 10 to 100 μg/ml, 48 hours, 1% oxygen vs 20% oxygen
Protocol: MCF-7 cells derived from human mammary cancer were cultured in a RPMI medium (containing 5% bovine fetal serum). The cells were added with RKB-3564S and RKB-3564SAC in a series of dilution, cultured under the condition of 1% oxygen concentration or 20% oxygen concentration for 48 hours, then added with MTT reagent [3-(4,5-dimethyl-thiazol-2-yl)-2,5-diphenyltetrazolium bromide], and further cultured for 2 to 4 hours, and then the absorption at 570 nm was measured to calculate the survival rate.

[3] = Solubility (physico-chemical properties); type: physicochemical
Protocol: The physico-chemical properties of […] are shown below. • Appearance: colorless powdery crystals • Melting point: 71.5-72° C. (dec.) • Molecular formula: C10H12O2 • High-resolution mass spectrum (HR-RABMS): (M+H)^+Found (m/z): 165.0868 Calcd. […] Insoluble in n-hexane.

| SMILES | inhibition of transcription activation by NF-κB [1] | inhibition of cell proliferation under 1% oxygen compared to 20% oxygen [2] | Solubility in methanol or dimethyl sulfoxide ([3]; methanol or dimethyl sulfoxide) | Solubility in n-hexane ([3]; n-hexane) |
| --- | --- | --- | --- | --- |
| C/C=C/c1cccc(OC(C)=O)c1COC(C)=O [RKB-3564SAC] | inhibited transcription activation by NF-κB | significantly inhibited cell proliferation |  |  |
| C/C=C/c1cccc(O)c1CO [RKB-3564S] | inhibited transcription activation by NF-κB | significantly inhibited cell proliferation | easily soluble | Insoluble |
